Reference: patent US6858591B2, “Antibiotic AA 896 analogs” (Wyeth Holdings Corporation, priority 2001, dated 2005)
Converted amounts (≈) assume the structure as drawn. Like-named read-outs stand apart in the source and are kept apart here.

Legend:
Test in all cases: In vitro MIC, broth dilution
Format in all cases: cell-based
[1] = system: E. coli GC 4560; conditions: Escherichia coli, GC4560
[2] = system: E. cloacae GC 3783; conditions: Enterobacter cloacae, GC3783
[3] = system: P. aeruginosa GC 2214; conditions: Pseudomonas aeruginosa, GC2214
[4] = system: P. aeruginosa GC 4532; conditions: Pseudomonas aeruginosa, GC4532
[5] = system: E. faecalis GC 2242; conditions: Enterococcus faecalis, GC2242
Procedure, shortened: (§1)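 Organisms were inoculated at 5×10^5 CFU/ml into Mueller-Hinton II containing antibiotic at 64-0.06 μg/ml, then incubated 18 hours at 35° C in ambient air. The MIC was the lowest concentration that inhibited growth.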

[6] = system: S. aureus GC 2216; conditions: Staphylococcus aureus, GC2216
Procedure, shortened: as §1

[7] = system: S. aureus GC 1131; conditions: Staphylococcus aureus, GC1131
Procedure, shortened: as §1

[8] = system: CNS GC 4537
Procedure, shortened: as §1

[9] = system: E. faecalis GC 4555; conditions: Enterococcus faecalis, GC4555
Procedure, shortened: as §1

[10] = system: S. aureus GC 4536; conditions: Staphylococcus aureus, GC4536
Procedure, shortened: as §1

[11] = system: E. faecalis GC 842; conditions: Enterococcus faecalis, GC842
Procedure, shortened: as §1

[12] = system: CNS GC 4547
Procedure, shortened: as §1

[13] = system: CNS GC 4538
Procedure, shortened: as §1

[14] = system: K. pneumoniae GC 4534; conditions: Klebsiella pneumoniae, GC4534
[15] = system: M. morganii GC 4531; conditions: Morganella morganii, GC4531
[16] = system: E. coli GC 2203; conditions: Escherichia coli, GC2203
[17] = system: E. coli GC 3226; conditions: Escherichia coli, GC3226
[18] = system: S. marcescens GC 4077; conditions: Serratia marcescens, GC4077
[19] = system: C. albicans GC 3066; conditions: Candida albicans, GC3066
[20] = system: E. coli GC 4559; conditions: Escherichia coli, GC4559

| SMILES | MIC [1] [µg/mL] | MIC [2] [µg/mL] | MIC [3] [µg/mL] | MIC [4] [µg/mL] | MIC [5] [µg/mL] | MIC [6] [µg/mL] | MIC [7] [µg/mL] | MIC [8] [µg/mL] | MIC [9] [µg/mL] | MIC [10] [µg/mL] | MIC [11] [µg/mL] | MIC [12] [µg/mL] | MIC [13] [µg/mL] | MIC [14] [µg/mL] | MIC [15] [µg/mL] | MIC [16] [µg/mL] | MIC [17] [µg/mL] | MIC [18] [µg/mL] | MIC [19] [µg/mL] | MIC [20] [µg/mL] | also measured |
| --- | --- | --- | --- | --- | --- | --- | --- | --- | --- | --- | --- | --- | --- | --- | --- | --- | --- | --- | --- | --- | --- |
| COc1ccc(Cn2c(=O)ccn([C@@H]3OC([C@H](O)[C@H](NCCCNC(=O)[C@H](CCC(=O)OC(C)(C)C)NC(=O)OCc4ccccc4)C(=O)OC(C)(C)C)[C@@H](O[Si](C)(C)C(C)(C)C)[C@H]3O[Si](C)(C)C(C)(C)C)c2=O)cc1 (stereo partly drawn) [Example 20, tert-Butyl (5S,12S)-12-[(R)-[(3R,4R,5R)-3,4-bis{[tert-butyl(dimethyl)silyl]oxy}-5-(3-(4-methoxybenzyl)-2,4-dioxo-3,4-dihydro-1(2H)-pyrimidinyl)tetrahydro-2-furanyl](hydroxy)methyl]-5-[3-(tert-butoxy)-3-oxopropyl]-3,6-dioxo-1-phenyl-2-oxa-4,7,11-triazatridecan-13-oate] | > 128 | > 128 | 128 (≈ 117 µM) | 128 (≈ 117 µM) | > 128 | > 128 | > 128 | > 128 | > 128 | > 128 | > 128 | > 128 | > 128 | > 128 | > 128 | > 128 | > 128 | > 128 | 128 (≈ 117 µM) | > 128 |  |
| COc1ccc(Cn2c(=O)ccn([C@@H]3OC([C@H](O)[C@H](NCCCNC(=O)[C@@H](N)CCC(=O)OC(C)(C)C)C(=O)OC(C)(C)C)[C@@H](O[Si](C)(C)C(C)(C)C)[C@H]3O[Si](C)(C)C(C)(C)C)c2=O)cc1 (stereo partly drawn) [Example 21, tert-Butyl (4S)-4-amino-5-[(3-{[(1S,2R)-2-[(3R,4R,5R)-3,4-bis{[tert-butyl(dimethyl)silyl]oxy}-5-(3-(4-methoxybenzyl)-2,4-dioxo-3,4-dihydro-1(2H)-pyrimidinyl)tetrahydro-2-furanyl]-1-(tert-butoxycarbonyl)-2-hydroxyethyl]amino}propyl)amino]-5-oxopentanoate] |  |  |  |  |  |  |  |  |  |  |  |  |  |  |  |  |  |  |  |  | MIC ([1]; E. coli GC 4560, read-out: MIC): > 128 µg/mL; MIC ([2]; E. cloacae GC 3783, read-out: MIC): > 128 µg/mL; MIC ([3]; P. aeruginosa GC 2214, read-out: MIC): > 128 µg/mL; MIC ([4]; P. aeruginosa GC 4532, read-out: MIC): > 128 µg/mL; MIC ([5]; E. faecalis GC 2242, read-out: MIC): > 128 µg/mL; MIC ([6]; S. aureus GC 2216, read-out: MIC): > 128 µg/mL; MIC ([7]; S. aureus GC 1131, read-out: MIC): > 128 µg/mL; MIC ([8]; CNS GC 4537, read-out: MIC): > 128 µg/mL; MIC ([9]; E. faecalis GC 4555, read-out: MIC): > 128 µg/mL; MIC ([10]; S. aureus GC 4536, read-out: MIC): > 128 µg/mL; MIC ([11]; E. faecalis GC 842, read-out: MIC): > 128 µg/mL; MIC ([12]; CNS GC 4547, read-out: MIC): > 128 µg/mL; MIC ([13]; CNS GC 4538, read-out: MIC): > 128 µg/mL; MIC ([14]; K. pneumoniae GC 4534, read-out: MIC): > 128 µg/mL; MIC ([15]; M. morganii GC 4531, read-out: MIC): > 128 µg/mL; MIC ([16]; E. coli GC 2203, read-out: MIC): > 128 µg/mL; MIC ([17]; E. coli GC 3226, read-out: MIC): > 128 µg/mL; MIC ([18]; S. marcescens GC 4077, read-out: MIC): > 128 µg/mL; MIC ([19]; C. albicans GC 3066, read-out: MIC): > 128 µg/mL; MIC ([20]; E. coli GC 4559, read-out: MIC): > 128 µg/mL |
| COc1ccc(Cn2c(=O)ccn([C@@H]3OC([C@H](O)[C@H](NC(=O)CCCCCCCCCCNC(=O)OCC4c5ccccc5-c5ccccc54)C(=O)OC(C)(C)C)[C@@H](O[Si](C)(C)C(C)(C)C)[C@H]3O[Si](C)(C)C(C)(C)C)c2=O)cc1 (stereo partly drawn) [Example 22, tert-Butyl (2S,3R)-3-[(3R,4R,5R)-3,4-bis{[tert-butyl(dimethyl)silyl]oxy}-5-(3-(4-methoxybenzyl)-2,4-dioxo-3,4-dihydro-1(2H)-pyrimidinyl)tetrahydro-2-furanyl]-2-[(11-{[(9H-fluoren-9-ylmethoxy)carbonyl]amino}undecanoyl)-amino]-3-hydroxypropanoate] | > 128 | > 128 | > 128 | > 128 | > 128 | > 128 | > 128 | > 128 | > 128 | > 128 | > 128 | > 128 | > 128 | > 128 | > 128 | > 128 | > 128 | > 128 | > 128 | > 128 |  |
